Data published in US9206154B2 (The United States of America, as represented by the …, priority 2010, dated 2015).
One block for each molecule: values may come before it.

Tests used:
[1] = system: 7TMR for vasoactive intestinal peptide; experiment: Vasoactive intestinal peptide-stimulated cAMP accumulation in human thyrocytes; type: cell-based
Text: (§1) This was important because it has been shown that TSHR mutants signal differently in different cell types. […] TSH and the small molecule ligand agonist that were identified previously specifically increase expression of several genes in thyrocytes (J Biomol Screen 13, 120, 2008; Proc Nat Acad Sci 106, 12471, 2009).

adenylyl cyclase = experiment: Forskolin-stimulated cAMP accumulation in human thyrocytes; type: cell-based
Text: as §1

beta-adrenergic receptor = experiment: Isoproterenol-stimulated cAMP accumulation in human thyrocytes; type: cell-based
Text: as §1

[2] = system: TPO, TSHR, TG, DIO2 and NIS mRNAs; experiment: Basal expression of thyroid gene mRNAs in primary cultures of human thyrocytes (quantitative RT-PCR); type: cell-based; details: 30 μM, 48 hr, IBMX, no agonist
Method: FIG. 4B) Thyrocytes were incubated in media containing 2% fetal bovine serum and 1 mM IBMX without or with 30 μM 1 as described in Methods. After 48 h, the cells were lysed and the levels of the mRNAs were measured and normalized to GAPDH mRNA. The mRNA levels are presented as fold stimulation over control. The data are from three independent experiments with duplicate samples are shown.
Culture of primary human thyrocytes.
(§2) Quantitative RT-PCR. mRNA levels were measured using primers and probes were from Applied Biosystems. Quantitative RT-PCR results were normalized to GAPDH to correct for differences in RNA input.

TSHR [3] = biological target: T1, TSHR (Homo sapiens, UniProt P16473); experiment: 125I-TSH binding to TSHRs on the surface of HEK-EM 293 cells; details: HEK-EM 293 / HEKTSHR cells
T1 construct: expressed in transfected cells
Method: HEK-EM293 cells stably expressing TSHRs were seeded into 24-well plates and grown to near confluency. Cell surface binding was measured by incubation in 0.25 ml binding buffer (HBSS containing 2.5% milk powder and 0.2% BSA) containing 60,000 cpm bovine ^125I-TSH without or with xx μM 1 for 2 hr at RT; nonspecific binding was measured in the presence of 1.8 μM unlabeled bovine TSH. Cells were washed 3 times with 0.5 ml ice cold HBSS and lysed with 0.5 ml 0.4 N NaOH, and the cell-associated radioactivity counted in a gamma counter.

[4] = cited from earlier work
TSHR [5] = biological target: T1, TSHR; experiment: TSH-stimulated cAMP production in HEK-EM 293 cells stably expressing TSHRs; type: cell-based; details: for classification from dose response of TSH-stimulated cAMP (FIG. 11): 1 mU/ml hTSH (EC50 dose)
Method: (§3) After 60 min, the cells were lysed and cAMP levels were measured by ELISA.
(§4) Non-treated cells, incubated with IBMX only, were used as control (basal activity). After 60 min, the cells were lysed and cAMP levels were measured by ELISA. […] After 40 min, the incubation was stopped and total cAMP levels were measured by ELISA.
After 40 min, the incubation was stopped and total cAMP levels were measured by ELISA. The data are from 2 experiments with duplicate samples and are presented as mean±SE.
(§5) Determination of cAMP production.

TSHR [6] = biological target: T1, TSHR; details: cited from earlier work
[7] = biological target: T2, TSHRs on retro-orbital fibroblasts (Homo sapiens, UniProt P16473); experiment: TSHR signaling in retro-orbital fibroblasts from patients with Graves' orbitopathy; type: cell-based; details: preliminary experiment; fibroblasts in cell culture
T2 construct: endogenous in cells; host or cells: cultured retro-orbital fibroblasts from Graves' orbitopathy patients
Text: In a preliminary experiment, it has been shown that compound S2-6 inhibits activation of TSHRs on retro-orbital fibroblasts acquired from patients with Graves' orbitopathy. Retro-orbital fibroblasts were obtained from patients undergoing decompression eye surgery for Graves' orbitopathy and were adapted to cell culture.

TSHR [8] = biological target: T1, TSHR; experiment: Graves' disease sera-stimulated cAMP production in HEKTSHR cells; type: cell-based; details: 1:30 dilutions of thirty GD sera
Method: FIG. 13A. […] After an additional 40 min, the incubation was stopped and total cAMP levels were measured by ELISA. The data are from one experiment with triplicate samples and are representative of 3 experiments. The effects of compound S2-6 were significant by paired t-test (P<0.01).
FIG. 13B. HEKTSHR cells were incubated without (Control) or with 30 μM compound S2-6 for 20 min and then 1 mM IBMX and 1:30 dilutions of thirty GD sera were added. After an additional 40 min, the incubation was stopped and total cAMP levels were measured by ELISA. […] The data are representative of 2 experiments performed in duplicate.

TSHR [9] = biological target: T1, TSHR; experiment: Basal (agonist-independent) cAMP production in HEK-EM 293 cells stably expressing TSHRs; type: cell-based; details: for classification from dose response of basal cAMP (inverse agonist activity): 60 min in HBSS + 1 mM IBMX, % of basal activity
Method: as §3, §4
HEK-EM 293 cells stably expressing TSHRs were exposed to the noted concentrations of the small molecule ligands for 60 min in HBSS+1 mM IBMX. Non-treated cells, incubated with IBMX only, were used as control (basal activity). After 60 min, the cells were lysed and cAMP levels were measured by ELISA.
as §5

TPO mRNA = experiment: Basal and TSAb-induced up-regulation of TPO mRNA in primary cultures of human thyrocytes; type: cell-based; details: 30 μM, 1:10 dilutions of GD sera, 48 hr
Method: Thyrocytes were incubated in DMEM containing 2% fetal bovine serum without (Control) or with 30 μM compound S2-6 without (basal) or with 1:10 dilutions of GD sera at 37 C. After 48 hr, the buffers were aspirated, the cells were lysed and the levels of TPO mRNA were measured and normalized to GAPDH mRNA. The mRNA levels are presented as fold of basal levels (Control). The data from 2 independent experiments with duplicate samples are shown.
as §2

T1 sequence (P16473 21-764): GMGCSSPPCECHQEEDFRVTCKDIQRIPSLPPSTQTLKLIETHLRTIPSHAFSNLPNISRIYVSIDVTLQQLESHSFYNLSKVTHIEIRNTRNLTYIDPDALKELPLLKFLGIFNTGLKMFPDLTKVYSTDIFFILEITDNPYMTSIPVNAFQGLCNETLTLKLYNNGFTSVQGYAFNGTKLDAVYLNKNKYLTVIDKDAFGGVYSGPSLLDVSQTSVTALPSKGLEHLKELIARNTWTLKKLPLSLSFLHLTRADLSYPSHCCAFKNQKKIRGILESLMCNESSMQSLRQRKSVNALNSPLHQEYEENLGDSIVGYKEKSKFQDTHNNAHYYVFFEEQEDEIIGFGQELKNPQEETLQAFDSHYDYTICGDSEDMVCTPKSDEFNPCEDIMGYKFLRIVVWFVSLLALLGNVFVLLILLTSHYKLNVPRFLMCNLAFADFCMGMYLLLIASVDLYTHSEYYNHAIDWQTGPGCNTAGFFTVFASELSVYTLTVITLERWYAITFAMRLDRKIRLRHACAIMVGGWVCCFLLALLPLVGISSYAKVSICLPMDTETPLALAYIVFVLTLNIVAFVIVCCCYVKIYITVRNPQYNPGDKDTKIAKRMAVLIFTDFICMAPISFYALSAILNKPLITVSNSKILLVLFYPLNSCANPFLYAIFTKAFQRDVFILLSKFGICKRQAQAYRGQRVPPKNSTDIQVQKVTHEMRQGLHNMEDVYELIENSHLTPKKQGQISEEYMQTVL
T2 sequence (P16473 21-764): as above

Compound: COc1ccc(C2Nc3ccccc3C(=O)N2Cc2ccco2)cc1COc1c(C)cccc1C (centres unmarked) [Compound 1, 2-(3-((2,6-dimethylphenoxy)methyl)-4-methoxyphenyl)-3-(furan-2-ylmethyl)-2,3-dihydroquinazolin-4(1H)-one]
cAMP accumulation stimulated by vasoactive intestinal peptide [1]: did not decrease
cAMP accumulation stimulated by forskolin (adenylyl cyclase): did not decrease
cAMP accumulation stimulated by isoproterenol (beta-adrenergic receptor): did not decrease
DIO2 mRNA level [2]: decreased
NIS mRNA level [2]: decreased
TG mRNA level [2]: decreased
TPO mRNA level [2]: decreased
TSHR mRNA level [2]: decreased

Compound: COc1ccc(C2Nc3ccccc3C(=O)N2Cc2ccco2)cc1COc1c(C)cc(NC(C)=O)cc1C (centres unmarked) [Compound S2-7, N-(4-(5-(3-(Furan-2-ylmethyl)-4-oxo-1,2,3,4-tetrahydroquinazolin-2-yl)-2-methoxybenzyloxy)-3,5-dimethylphenyl)acetamide]
classification from dose response of TSH-stimulated cAMP (FIG. 11) (TSHR [5]): neutral antagonists
classification from dose response of basal cAMP (inverse agonist activity) (TSHR [9]): inverse agonists

Compound: COc1ccc(C2Nc3ccccc3C(=O)N2Cc2ccco2)cc1CSc1c(C)cccc1C (centres unmarked) [Compound S2-8, 2-(3-((2,6-Dimethylphenylthio)methyl)-4-methoxyphenyl)-3-(furan-2-ylmethyl)-2,3-dihydroquinazolin-4(1H)-one]
classification from dose response of TSH-stimulated cAMP (FIG. 11) (TSHR [5]): neutral antagonists
classification from dose response of basal cAMP (inverse agonist activity) (TSHR [9]): neutral antagonist

Now from value to molecule, other results behind:

effect on 125I-TSH binding to TSHRs (TSHR [3]): no effect
classification from dose response of TSH-stimulated cAMP (FIG. 11) (TSHR [5]): neutral antagonists
inhibition at 30 µM (TSHR [5]; HEK-EM293, read-out: inhibition of cAMP production stimulated by an EC50 concentration of TSH at 30 μM): 53%
mode of antagonism of TSH signaling (TSHR [5]; varying TSH concentrations (Schild analysis for compound 1)): competitive
inhibition of basal signaling in retro-orbital fibroblasts [7]: 75%
inhibition of thyroid-stimulating antibody-stimulated signaling in retro-orbital fibroblasts [7]: 85%
inhibition at 30 µM (TSHR [8]): 39 ± 2.6%
classification from dose response of basal cAMP (inverse agonist activity) (TSHR [9]): inverse agonists
inhibition at 30 µM (TSHR [9]; HEK-EM293, read-out: inhibition of basal cAMP production by TSHRs at 30 μM): 53%
Compound: COc1ccc(C2Nc3ccccc3C(=O)N2Cc2cccnc2)cc1COc1c(C)cccc1C (centres unmarked) [Compound S2-6, 2-(3-((2,6-dimethylphenoxy)methyl)-4-methoxyphenyl)-3-(pyridin-3-ylmethyl)-2,3-dihydroquinazolin-4-one]
solubility relative to compound 1 [4]: increased solubility
potency and efficacy as TSHR antagonist relative to compound 1 (TSHR [6]): as potent and effective as compound 1
inhibition of basal and GD sera TSAb up-regulation of thyroperoxidase mRNA levels (TPO mRNA): 65±2.0%

classification from dose response of TSH-stimulated cAMP (FIG. 11) (TSHR [5]): neutral antagonists
Compound: COc1ccc(C2Nc3ccccc3C(=O)N2Cc2cccnc2)cc1COc1c(C)cc(NC(C)=O)cc1C (centres unmarked) [Compound S2-17, N-(4-(2-Methoxy-5-(4-oxo-3-(pyridin-3-ylmethyl)-1,2,3,4-tetrahydroquinazolin-2-yl)benzyloxy)-3,5-dimethylphenyl)acetamide]

classification from dose response of TSH-stimulated cAMP (FIG. 11) (TSHR [5]): neutral antagonists
Compound: COCCN1C(=O)c2ccccc2NC1c1ccc(OC)c(COc2c(C)cc(NC(C)=O)cc2C)c1 (centres unmarked) [Compound S2-29, N-(4-(2-methoxy-5-(3-(2-methoxyethyl)-4-oxo-1,2,3,4-tetrahydroquinazolin-2-yl)benzyloxy)-3,5-dimethylphenyl)acetamide]
